Data as given in ChEMBL document CHEMBL4507285, “Data for DCP probe MRL-SYKi” (2021).

What was measured:
[1] = molecular target: D(1B) dopamine receptor (Homo sapiens) (UniProt P21918); conditions: Compound concentration 10.0 uM
[2] = test system: Receptor-type tyrosine-protein kinase FLT3 (Homo sapiens), P36888 [D835V]; conditions: Compound concentration 100.0 nM
[3] = molecular target: Serine/threonine-protein kinase PAK 1 (Homo sapiens) (UniProt Q13153); conditions: Compound concentration 100.0 nM
[4] = molecular target: Proto-oncogene tyrosine-protein kinase receptor Ret (Homo sapiens) (UniProt P07949); conditions: Compound concentration 100.0 nM
[5] = molecular target: Tyrosine-protein kinase ZAP-70 (Homo sapiens) (UniProt P43403); conditions: Compound concentration 100.0 nM
[6] = molecular target: Receptor tyrosine-protein kinase erbB-2 (Homo sapiens) (UniProt P04626); conditions: Compound concentration 100.0 nM
[7] = molecular target: Beta-2 adrenergic receptor (Homo sapiens) (UniProt P07550); conditions: Compound concentration 10.0 uM
[8] = molecular target: Serine/threonine-protein kinase MARK2 (Homo sapiens) (UniProt Q7KZI7); conditions: Compound concentration 100.0 nM
[9] = molecular target: Serine/threonine-protein kinase 32A (Homo sapiens) (UniProt Q8WU08); conditions: Compound concentration 100.0 nM
[10] = molecular target: Non-receptor tyrosine-protein kinase TYK2 (Homo sapiens) (UniProt P29597); conditions: Compound concentration 100.0 nM
[11] = molecular target: Serine/threonine-protein kinase 17B (Homo sapiens) (UniProt O94768); conditions: Compound concentration 100.0 nM
[12] = molecular target: Phosphatidylinositol 5-phosphate 4-kinase type-2 beta (Homo sapiens) (UniProt P78356); conditions: Compound concentration 100.0 nM
[13] = molecular target: Serine/threonine-protein kinase mTOR (Homo sapiens) (UniProt P42345); conditions: Compound concentration 100.0 nM
[14] = molecular target: Mitogen-activated protein kinase kinase kinase 13 (Homo sapiens) (UniProt O43283); conditions: Compound concentration 100.0 nM
[15] = molecular target: Cyclin-dependent kinase 4 (Homo sapiens) (UniProt P11802); conditions: Compound concentration 100.0 nM
[16] = test system: Fibroblast growth factor receptor 3 (Homo sapiens), P22607 [G697C]; conditions: Compound concentration 100.0 nM
[17] = molecular target: Phosphatidylinositol 4,5-bisphosphate 3-kinase catalytic subunit gamma isoform (Homo sapiens) (UniProt P48736); conditions: Compound concentration 100.0 nM
[18] = molecular target: Mitogen-activated protein kinase 6 (Homo sapiens) (UniProt Q16659); conditions: Compound concentration 100.0 nM
[19] = molecular target: Mitogen-activated protein kinase 10 (Homo sapiens) (UniProt P53779); conditions: Compound concentration 100.0 nM
[20] = molecular target: Tyrosine-protein kinase Mer (Homo sapiens) (UniProt Q12866); conditions: Compound concentration 100.0 nM
[21] = molecular target: Mitogen-activated protein kinase 13 (Homo sapiens) (UniProt O15264); conditions: Compound concentration 100.0 nM
[22] = molecular target: Mitogen-activated protein kinase kinase kinase 10 (Homo sapiens) (UniProt Q02779); conditions: Compound concentration 100.0 nM
[23] = molecular target: Calcium/calmodulin-dependent protein kinase type IV (Homo sapiens) (UniProt Q16566); conditions: Compound concentration 100.0 nM
[24] = test system: Epidermal growth factor receptor (Homo sapiens), P00533 [L858R]; conditions: Compound concentration 100.0 nM
[25] = molecular target: Tyrosine-protein kinase Fyn (Homo sapiens, UniProt P06241); conditions: Compound concentration 100.0 nM
[26] = molecular target: Interleukin-1 receptor-associated kinase 4 (Homo sapiens) (UniProt Q9NWZ3); conditions: Compound concentration 100.0 nM
[27] = test system: Mast/stem cell growth factor receptor Kit (Homo sapiens), P10721 [D816V]; conditions: Compound concentration 100.0 nM
[28] = molecular target: Tyrosine-protein kinase ABL1 (Homo sapiens) (UniProt P00519); conditions: Compound concentration 100.0 nM
[29] = molecular target: Ribosomal protein S6 kinase alpha-2 (Homo sapiens) (UniProt Q15349); conditions: Compound concentration 100.0 nM
[30] = molecular target: Serine/threonine-protein kinase 38 (Homo sapiens) (UniProt Q15208); conditions: Compound concentration 100.0 nM
[31] = molecular target: Calcium/calmodulin-dependent protein kinase type II subunit gamma (Homo sapiens) (UniProt Q13555); conditions: Compound concentration 100.0 nM
[32] = molecular target: Beta-adrenergic receptor kinase 1 (Homo sapiens) (UniProt P25098); conditions: Compound concentration 100.0 nM
[33] = molecular target: Tyrosine-protein kinase JAK3 (Homo sapiens) (UniProt P52333); conditions: Compound concentration 100.0 nM
[34] = molecular target: Ribosomal protein S6 kinase alpha-2 (Homo sapiens) (UniProt Q15349); conditions: Compound concentration 100.0 nM; remark: listed apart in the source
[35] = molecular target: Mitogen-activated protein kinase kinase kinase 19 (Homo sapiens) (UniProt Q56UN5); conditions: Compound concentration 100.0 nM
[36] = molecular target: Serine/threonine-protein kinase MRCK alpha (Homo sapiens) (UniProt Q5VT25); conditions: Compound concentration 100.0 nM
[37] = molecular target: Uncharacterized serine/threonine-protein kinase SBK3 (Homo sapiens) (UniProt P0C264); conditions: Compound concentration 100.0 nM
[38] = molecular target: Cyclin-dependent kinase 13 (Homo sapiens) (UniProt Q14004); conditions: Compound concentration 100.0 nM
[39] = molecular target: Ephrin type-B receptor 1 (Homo sapiens) (UniProt P54762); conditions: Compound concentration 100.0 nM
[40] = molecular target: AP2-associated protein kinase 1 (Homo sapiens) (UniProt Q2M2I8); conditions: Compound concentration 100.0 nM
[41] = molecular target: Ephrin type-A receptor 1 (Homo sapiens) (UniProt P21709); conditions: Compound concentration 100.0 nM
[42] = molecular target: Serine/threonine-protein kinase pim-1 (Homo sapiens) (UniProt P11309); conditions: Compound concentration 100.0 nM
[43] = test system: Tyrosine-protein kinase ABL1 (Homo sapiens), P00519 [F317L]; conditions: Compound concentration 100.0 nM
[44] = molecular target: Sigma intracellular receptor 2 (Homo sapiens) (UniProt Q5BJF2); conditions: Compound concentration 10.0 uM
[45] = molecular target: Serine/threonine-protein kinase 25 (Homo sapiens) (UniProt O00506); conditions: Compound concentration 100.0 nM

Chain of Ribosomal protein S6 kinase alpha-2 (Homo sapiens) (Q15349 whole entry): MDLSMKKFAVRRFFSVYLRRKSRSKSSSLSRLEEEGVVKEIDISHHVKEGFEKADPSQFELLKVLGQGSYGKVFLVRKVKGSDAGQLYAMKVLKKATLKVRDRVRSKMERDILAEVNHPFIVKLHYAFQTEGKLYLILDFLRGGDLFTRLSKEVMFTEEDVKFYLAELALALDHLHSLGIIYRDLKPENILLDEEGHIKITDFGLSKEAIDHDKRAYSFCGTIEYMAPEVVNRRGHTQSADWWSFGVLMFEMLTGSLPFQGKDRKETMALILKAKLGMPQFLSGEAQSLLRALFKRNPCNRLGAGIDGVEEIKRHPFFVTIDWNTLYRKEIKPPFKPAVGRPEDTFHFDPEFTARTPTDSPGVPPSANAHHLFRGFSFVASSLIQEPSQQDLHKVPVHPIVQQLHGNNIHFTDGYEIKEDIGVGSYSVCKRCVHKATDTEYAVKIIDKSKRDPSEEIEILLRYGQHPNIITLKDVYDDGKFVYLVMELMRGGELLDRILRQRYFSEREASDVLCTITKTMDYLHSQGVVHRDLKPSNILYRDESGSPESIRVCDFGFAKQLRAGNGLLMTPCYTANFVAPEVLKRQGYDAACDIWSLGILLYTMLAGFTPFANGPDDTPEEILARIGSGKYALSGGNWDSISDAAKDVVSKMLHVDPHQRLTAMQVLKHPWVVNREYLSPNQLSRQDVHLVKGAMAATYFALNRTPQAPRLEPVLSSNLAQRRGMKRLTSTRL
Chain of Calcium/calmodulin-dependent protein kinase type IV (Homo sapiens) (Q16566 whole entry): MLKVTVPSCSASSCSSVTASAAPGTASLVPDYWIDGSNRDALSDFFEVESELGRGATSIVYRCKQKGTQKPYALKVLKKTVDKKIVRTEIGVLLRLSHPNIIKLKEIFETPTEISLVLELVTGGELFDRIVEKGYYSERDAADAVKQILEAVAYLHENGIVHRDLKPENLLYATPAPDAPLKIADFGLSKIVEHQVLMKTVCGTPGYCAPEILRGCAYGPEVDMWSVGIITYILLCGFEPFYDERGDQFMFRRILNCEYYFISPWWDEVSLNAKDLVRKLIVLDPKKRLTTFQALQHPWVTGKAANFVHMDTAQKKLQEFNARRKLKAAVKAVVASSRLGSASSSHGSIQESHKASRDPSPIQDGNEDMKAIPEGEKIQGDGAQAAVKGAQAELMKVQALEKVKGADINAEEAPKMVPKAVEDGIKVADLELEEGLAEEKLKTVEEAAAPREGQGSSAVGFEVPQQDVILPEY
Chain of Tyrosine-protein kinase JAK3 (Homo sapiens) (P52333 whole entry): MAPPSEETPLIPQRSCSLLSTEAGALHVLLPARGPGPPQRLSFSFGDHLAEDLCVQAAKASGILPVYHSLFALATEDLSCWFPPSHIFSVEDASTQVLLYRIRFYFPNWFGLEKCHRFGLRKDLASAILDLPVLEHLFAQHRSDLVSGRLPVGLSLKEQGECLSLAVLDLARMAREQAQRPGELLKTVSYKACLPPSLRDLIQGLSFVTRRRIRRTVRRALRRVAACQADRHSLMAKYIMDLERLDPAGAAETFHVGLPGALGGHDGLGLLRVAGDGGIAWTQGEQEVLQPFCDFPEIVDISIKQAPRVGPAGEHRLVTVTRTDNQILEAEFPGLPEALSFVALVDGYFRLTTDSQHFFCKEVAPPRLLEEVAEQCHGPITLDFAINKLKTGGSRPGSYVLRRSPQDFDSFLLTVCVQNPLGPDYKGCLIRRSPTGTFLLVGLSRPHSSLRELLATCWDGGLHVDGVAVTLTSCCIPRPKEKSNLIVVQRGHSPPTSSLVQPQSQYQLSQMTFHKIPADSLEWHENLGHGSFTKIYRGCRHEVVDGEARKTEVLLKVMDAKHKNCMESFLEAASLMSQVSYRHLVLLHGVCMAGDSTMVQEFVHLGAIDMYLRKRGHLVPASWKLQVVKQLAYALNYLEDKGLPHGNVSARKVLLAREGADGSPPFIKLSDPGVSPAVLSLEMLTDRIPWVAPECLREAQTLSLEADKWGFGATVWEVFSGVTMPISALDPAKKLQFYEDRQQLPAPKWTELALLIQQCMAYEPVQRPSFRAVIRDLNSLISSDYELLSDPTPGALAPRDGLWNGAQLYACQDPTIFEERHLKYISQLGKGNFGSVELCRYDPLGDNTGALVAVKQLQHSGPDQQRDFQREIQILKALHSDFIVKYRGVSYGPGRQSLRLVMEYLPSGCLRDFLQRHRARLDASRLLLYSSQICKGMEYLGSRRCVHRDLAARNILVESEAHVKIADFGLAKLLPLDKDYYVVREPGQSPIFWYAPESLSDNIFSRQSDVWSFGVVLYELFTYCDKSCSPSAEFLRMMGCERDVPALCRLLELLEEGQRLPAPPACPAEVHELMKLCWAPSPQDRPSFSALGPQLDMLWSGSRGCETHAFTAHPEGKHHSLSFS
Chain of Tyrosine-protein kinase ABL1 (Homo sapiens) (P00519 whole entry): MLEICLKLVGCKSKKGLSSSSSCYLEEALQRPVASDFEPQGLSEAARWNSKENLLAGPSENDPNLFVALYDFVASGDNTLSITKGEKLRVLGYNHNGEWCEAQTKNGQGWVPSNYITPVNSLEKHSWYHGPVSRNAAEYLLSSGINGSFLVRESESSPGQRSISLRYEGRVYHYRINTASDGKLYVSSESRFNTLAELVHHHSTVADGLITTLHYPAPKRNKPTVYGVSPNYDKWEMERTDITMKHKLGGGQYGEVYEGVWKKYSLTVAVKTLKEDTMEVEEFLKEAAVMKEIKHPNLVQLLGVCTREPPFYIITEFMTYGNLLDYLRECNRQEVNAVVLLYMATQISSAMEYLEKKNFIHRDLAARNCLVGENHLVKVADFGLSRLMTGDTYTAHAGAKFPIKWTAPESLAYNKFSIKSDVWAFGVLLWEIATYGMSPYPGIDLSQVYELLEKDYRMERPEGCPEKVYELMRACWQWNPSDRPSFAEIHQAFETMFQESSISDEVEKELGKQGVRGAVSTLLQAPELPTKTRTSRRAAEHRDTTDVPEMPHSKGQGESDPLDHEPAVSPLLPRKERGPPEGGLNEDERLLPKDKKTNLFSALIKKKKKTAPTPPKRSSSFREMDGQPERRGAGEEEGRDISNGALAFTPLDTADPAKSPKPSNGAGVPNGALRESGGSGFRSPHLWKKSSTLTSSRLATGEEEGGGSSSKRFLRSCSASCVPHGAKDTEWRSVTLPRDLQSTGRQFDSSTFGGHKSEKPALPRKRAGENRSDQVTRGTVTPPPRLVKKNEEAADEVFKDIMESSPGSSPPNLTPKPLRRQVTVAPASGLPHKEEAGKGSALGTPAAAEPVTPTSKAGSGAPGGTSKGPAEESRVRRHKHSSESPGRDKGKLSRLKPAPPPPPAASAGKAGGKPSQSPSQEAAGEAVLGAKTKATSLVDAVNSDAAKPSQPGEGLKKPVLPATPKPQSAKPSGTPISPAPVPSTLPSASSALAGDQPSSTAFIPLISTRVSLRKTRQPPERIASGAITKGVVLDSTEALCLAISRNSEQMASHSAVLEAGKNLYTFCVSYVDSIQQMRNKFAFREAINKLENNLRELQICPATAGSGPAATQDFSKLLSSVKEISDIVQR
Chain of D(1B) dopamine receptor (Homo sapiens) (P21918 whole entry): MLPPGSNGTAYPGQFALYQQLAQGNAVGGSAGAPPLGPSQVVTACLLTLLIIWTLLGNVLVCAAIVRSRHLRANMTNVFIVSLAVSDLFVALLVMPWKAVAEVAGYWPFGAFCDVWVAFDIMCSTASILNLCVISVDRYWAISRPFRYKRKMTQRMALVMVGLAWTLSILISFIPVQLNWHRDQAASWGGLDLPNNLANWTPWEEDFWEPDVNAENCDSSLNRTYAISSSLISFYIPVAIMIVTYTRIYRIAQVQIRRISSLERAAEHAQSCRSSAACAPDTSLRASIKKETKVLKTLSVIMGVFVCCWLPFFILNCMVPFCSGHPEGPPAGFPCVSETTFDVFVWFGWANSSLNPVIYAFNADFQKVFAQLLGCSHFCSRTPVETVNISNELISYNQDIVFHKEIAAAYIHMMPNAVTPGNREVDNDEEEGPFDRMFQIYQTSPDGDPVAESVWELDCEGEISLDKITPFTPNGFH
Chain of Serine/threonine-protein kinase PAK 1 (Homo sapiens) (Q13153 whole entry): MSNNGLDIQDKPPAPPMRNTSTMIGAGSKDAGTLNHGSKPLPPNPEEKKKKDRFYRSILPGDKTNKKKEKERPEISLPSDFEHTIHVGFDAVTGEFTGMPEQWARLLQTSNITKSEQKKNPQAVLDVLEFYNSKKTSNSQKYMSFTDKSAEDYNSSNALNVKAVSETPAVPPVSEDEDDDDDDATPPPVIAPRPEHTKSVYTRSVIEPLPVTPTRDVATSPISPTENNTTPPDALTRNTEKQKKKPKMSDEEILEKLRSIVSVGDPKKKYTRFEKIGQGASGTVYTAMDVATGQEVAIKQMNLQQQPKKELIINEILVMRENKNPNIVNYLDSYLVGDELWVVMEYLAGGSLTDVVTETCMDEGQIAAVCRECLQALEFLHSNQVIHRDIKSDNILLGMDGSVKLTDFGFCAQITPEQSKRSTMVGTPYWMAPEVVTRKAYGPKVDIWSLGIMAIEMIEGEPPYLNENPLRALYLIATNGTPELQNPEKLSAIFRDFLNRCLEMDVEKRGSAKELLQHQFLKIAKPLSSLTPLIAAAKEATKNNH
Chain of Sigma intracellular receptor 2 (Homo sapiens) (Q5BJF2 whole entry): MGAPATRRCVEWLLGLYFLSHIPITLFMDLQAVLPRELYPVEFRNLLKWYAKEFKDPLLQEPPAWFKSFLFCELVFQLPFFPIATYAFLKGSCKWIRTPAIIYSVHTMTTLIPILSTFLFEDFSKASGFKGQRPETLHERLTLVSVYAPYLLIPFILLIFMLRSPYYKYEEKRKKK
Chain of Serine/threonine-protein kinase 17B (Homo sapiens) (O94768 whole entry): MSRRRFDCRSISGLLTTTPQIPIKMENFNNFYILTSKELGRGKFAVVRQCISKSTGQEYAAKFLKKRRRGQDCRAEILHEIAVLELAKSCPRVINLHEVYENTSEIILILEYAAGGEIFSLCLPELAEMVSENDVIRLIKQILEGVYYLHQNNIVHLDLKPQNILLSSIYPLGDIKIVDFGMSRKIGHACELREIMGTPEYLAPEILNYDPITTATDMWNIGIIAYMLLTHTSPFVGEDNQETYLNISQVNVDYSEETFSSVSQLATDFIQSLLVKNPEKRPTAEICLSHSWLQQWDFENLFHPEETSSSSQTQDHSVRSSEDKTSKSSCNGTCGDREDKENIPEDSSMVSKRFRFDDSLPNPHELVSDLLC

## Cc1ccc(-c2cnc([C@@]3(O)CC[C@H](C(=O)O)C(C)(C)C3)s2)cc1Nc1cccc(C(F)(F)F)n1 [MRL-SYKi-NC]
[1]
  inhibition: 18.6%
[2]
  residual activity: 100%
[3]
  residual activity: 94.5%
[4]
  residual activity: 100%
[5]
  residual activity: 88.5%
[6]
  residual activity: 100%
[7]
  inhibition: 1.6%
[8]
  residual activity: 100%
[9]
  residual activity: 89.7%
[10]
  residual activity: 100%
[11]
  residual activity: 94.6%
[12]
  residual activity: 61.3%
[13]
  residual activity: 84.6%
[14]
  residual activity: 100%
[15]
  residual activity: 93.4%
[16]
  residual activity: 100%
[17]
  residual activity: 85.4%
[18]
  residual activity: 100%
[19]
  residual activity: 37.5%
[20]
  residual activity: 100%
[21]
  residual activity: 100%
[22]
  residual activity: 69.4%
[23]
  residual activity: 100%
[24]
  residual activity: 76.6%
[25]
  residual activity: 100%
[26]
  residual activity: 48.8%
[27]
  residual activity: 100%
[28]
  residual activity: 100%
[29]
  residual activity: 100%
[30]
  residual activity: 87.9%
[31]
  residual activity: 88.2%
[32]
  residual activity: 100%
[33]
  residual activity: 42%
[34]
  residual activity: 100%
[35]
  residual activity: 100%
[36]
  residual activity: 100%
[37]
  residual activity: 100%
[38]
  residual activity: 45.7%
[39]
  residual activity: 98.7%
[40]
  residual activity: 85.7%
[41]
  residual activity: 100%
[42]
  residual activity: 100%
[43]
  residual activity: 84.4%
[44]
  inhibition: 27.4%
[45]
  residual activity: 72.5%

## Cc1cc(Nc2nccc(C)n2)cc(-c2cnc([C@@]3(O)CC[C@H](C(=O)O)C(C)(C)C3)s2)c1 [MRL-SYKi]
[1]
  inhibition: 8.85%
[2]
  residual activity: 75.6%
[3]
  residual activity: 100%
[4]
  residual activity: 98.8%
[5]
  residual activity: 44.9%
[6]
  residual activity: 89.6%
[7]
  inhibition: 5.53%
[8]
  residual activity: 100%
[9]
  residual activity: 100%
[10]
  residual activity: 100%
[11]
  residual activity: 100%
[12]
  residual activity: 79.6%
[13]
  residual activity: 77.7%
[14]
  residual activity: 100%
[15]
  residual activity: 100%
[16]
  residual activity: 100%
[17]
  residual activity: 100%
[18]
  residual activity: 97.9%
[19]
  residual activity: 67.7%
[20]
  residual activity: 81.5%
[21]
  residual activity: 97.9%
[22]
  residual activity: 95.1%
[23]
  residual activity: 92.3%
[24]
  residual activity: 75.3%
[25]
  residual activity: 36.1%
[26]
  residual activity: 100%
[27]
  residual activity: 100%
[28]
  residual activity: 63.3%
[29]
  residual activity: 86%
[30]
  residual activity: 80.6%
[31]
  residual activity: 95.2%
[32]
  residual activity: 97.5%
[33]
  residual activity: 60.9%
[34]
  residual activity: 100%
[35]
  residual activity: 100%
[36]
  residual activity: 86.2%
[37]
  residual activity: 100%
[38]
  residual activity: 89.5%
[39]
  residual activity: 100%
[40]
  residual activity: 100%
[41]
  residual activity: 100%
[42]
  residual activity: 91.7%
[43]
  residual activity: 69.6%
[44]
  inhibition: 33.5%
[45]
  residual activity: 100%
